The subject of one assay is GBM cells (U251). Nature of the assay: Mitochondrial morphology (TEM, MitoTracker Red). Type of assay: cell-based, human. To be noted: inhibitor 24 hours. The method, then: (A, B) Transmission electron microscopy (TEM) analysis of the mitochondrial morphology in GBM cells (U251) treated with the DGAT1 inhibitor A-922500 (20 μg/ml) or DGAT2 inhibitor PF-06424439 (20 μg/ml) for 24 hr and shown in a or infected with shRNA-expressing lentivirus against DGAT1 for 48 hr and shown in b. Scale bar, 500 nm. Mitochondria are indicated by red arrows. Mitochondria length and loss of cristae (%) were quantified by ImageJ over 100 mitochondria in each group (mean±SEM). Statistical significance was determined by one-way ANOVA. * P<0.0001. (C, D) Representative fluorescence images of LDs (green) and mitochondria (red) in U251 cells treated with DGAT1 or DGAT2 inhibitor and shown in c or shRNA in (D) as in panels (A, B). […] The percentage of cells with tubular or fragmented mitochondria was quantified by ImageJ in more than 100 cells (mean±SEM). Statistical significance was determined by one-way ANOVA. * P<0.001. […] Lower panels show the quantification of relative basal and maximal OCR change (details please see Methods). […] Basal OCR was determined as OCR before oligomycin subtract OCR after rotenone addition, and maximal OCR was determined as OCR after FCCP subtract OCR after rotenone addition. Statistical significance was determined by one-way ANOVA. * P<0.0001. […] ROS were detected with CellROX Deep Red, and mitochondria were stained with MitoTracker Green. […]

A further assay relates to BIP and CHOP. Nature of the assay: Western blot of ER stress markers. As to conditions: 20 μg/ml, 24 hours, GBM cells. Type of assay: cell-based, human. How it is done: (A) Western blotting analysis of ER stress protein markers BIP and CHOP expression in GBM cells treated with the DGAT1 inhibitor A-922500 (20 μg/ml) for 24 hr. (B) Percentage of cell death in U251 cells treated with the ER stress pathway PERK inhibitor GSK2656157 or IRE1a inhibitor 4μ8C, alone or in combination with the DGAT1 inhibitor A-922500 (20 μg/ml) for 3 days. […] (C) Western blotting analysis of expression of ER stress protein markers BIP and CHOP in GBM cells infected with shRNA-expressing lentivirus against DGAT1 for 48 hr.
Western Blotting Cells were lysed by RIPA buffer (Cat #NC9484499; Fisher Scientific) containing protease inhibitor cocktail (Cat #11836170001; Roche) and phosphatase inhibitor (Cat #04906845001; Roche). The proteins were separated by using 12% SDS-PAGE, and transferred onto a Hybond ECL nitrocellulose membrane (Cat #RPN3032D; GE Healthcare).
After blocking for 1.5 h in 5% nonfat milk diluted by Tris-buffered saline containing 0.1% Tween 20, the membranes were incubated with various primary antibodies, followed by secondary antibodies conjugated to horseradish peroxidase.
(In western blotting, separated proteins are transferred to a membrane and probed.)

Regarding `O=C(Nc1ccccc1)Nc1ccc(-c2ccc(C(=O)[C@@H]3CCC[C@H]3C(=O)O)cc2)cc1` [A-922500], the structure of mitochondria entry with GBM cells (U251) is given as “severely disrupted”. For the same compound, the “protein levels of BIP and CHOP (ER stress)” value with BIP and CHOP is recorded as “induces ER stress”; with BIP and CHOP (listed as A922500), “increased”.

Values taken from patent US20240148679A1, “METHODS AND COMPOSITIONS RELATED TO TREATMENT AND PREVENTION OF CANCER BY INHIBITION OF DGAT1 AND DGAT2” (Ohio State Innovation Foundation, priority 2019, published 2024).
